Results taken from patent US6239171A, “Tocotrienols and tocotrienol-like compounds and methods for their use” (Lipogenics, Inc., priority 1998, dated 2001).

Experiments:
[1] = target: T1, Fatty Acid Synthase (Gallus gallus, UniProt P12276); assay: Fatty acid synthase activity in isolated chicken hepatocytes; type: cell-based
T1 construct: hepatocytes isolated from livers of 8-week old female chickens; endogenous in cells; host or cells: primary chicken hepatocytes
Description: (§1) This study measured the effects of three tocotrienols isolated from rice bran on cholesterol-related enzyme activity in hepatocytes isolated from livers of 8-week old female chickens. The chickens were fed the chick mash diet for 8 weeks. They were then fasted for 40 hours and finally refed for 48 hours before sacrifice. The hepatocytes were then prepared following standard methods.
(§2) Each compound was isolated from TRF using the following protocol: A bond Elute amine column was equilibrated with 2 ml hexane. 10 mg of TRF (dissolved in 0.5 ml hexane) was bound to the amine column. The column was washed with 1 ml of hexane, then with 1 ml of 3% isopropanol in hexane. P-21 and P-25 were eluted off the column with 5% isopropanol in hexane. Then using 10% isopropanol in hexane, the impurity P-20 was eluted. α-tocotrienol was also tested.

[2] = tested on: cholesterol 7α-hydroxylase; assay: Hepatic cholesterol 7α-hydroxylase activity in hypercholesterolemic swine; type: in vivo; settings: control diet + 50 ppm
Excerpt: (§3) All assays conducted on chicken or swine serum were done following the protocols described in A. A. Qureshi et al., "Lowering Of Serum Cholesterol In Hypercholesterolemic Humans By Tocotrienols" (Palmvitee), Am. J. Clin. Nutr., 53, pp. 1021S-26S (1991). All enzymatic assays were done following the protocols described in A. A. Qureshi et al., "Effects of Cereals and Culture Filtrate of Trichoderma viride on Lipid Metabolism of Swine", Lipids, 17, pp. 924 (1982). Plasma insulin, glucagon and TNF levels were measured using radioinnumoassay kits from Ventrex Laboratories, Inc. (Portland, Me.), ICN Biomedicals, Inc. (Costa Mesa, Calif.) and Genzyme Corp. (Cambridge, Mass.), respectively.
We next measured the effects of various tocotrienols from rice bran on HMG-CoA reductase and cholesterol 7α-hydroxylase in hypercholesterolemic swine. Since pigs are very similar to humans in their cholesterol metabolism, they provide a useful model from which to study hypercholesterolemia and related diseases. […] The serum cholesterol concentration in these swine is typically above 300-500 mg/dl, as compared to 120-160 mg/dl in normal adult swine. As a result, the pigs develop complicated atherosclerotic plaques that closely resemble advanced atherosclerotic lesions found in humans.
(§4) Each group of three 5-month old swine was administered either a control diet or a control diet supplemented with 50 ppm of TRF or 50 ppm of an individual tocotrienol. The samples were prepared as described in Example 11. After a 12 hour fast, serum and plasma samples were taken a 0 hrs, 21 days and 42 days from the start of the feeding period. After taking serum and plasma samples from the pigs at the end of the 42 day period, all of the swine were fasted for a total of 40 hours, followed by a 48 hour refeeding period. One swine from each group was sacrificed at that time and the liver, intestine, lung, heart, loin muscle, adipose tissue and ham muscle were removed.

[3] = tested on: chickens; assay: Serum cholesterol, apolipoproteins, triglycerides and glucose in chickens fed supplemented diets; type: in vivo, chicken; settings: 4 weeks; for APO A1, percentage of control / APO A1 in serum / APO B in serum / APO B, percentage of control / DL-Cholesterol/Total Cholesterol / DL-Cholesterol/Total Cholesterol, percentage of control / Glucose in serum / Glucose, percentage of control / HDL-Cholesterol in serum / HDL-Cholesterol, percentage of control / HDL-Cholesterol/LDL-Cholesterol / HDL-Cholesterol/LDL-Cholesterol, percentage of control / LDL-Cholesterol in serum / LDL-Cholesterol, percentage of control / Total Cholesterol in serum / Total Cholesterol, percentage of control / Triglycerides in serum / Triglycerides, percentage of control: control diet + 50 ppm
Excerpt: as §3, with “respectively. […]” for “respectively.”
Each group of 6 chickens (6-week old female while leghorn) was administered the chick mash diet described in Example 5, supplemented with one of three different amounts of waxes (sterols), 50 ppm of TRF (prepared as in Example 2) or 5% equivalent of the methanol insoluble fraction Louisiana rice bran oil. […] The birds were fasted for a period of 14 hours prior to sacrifice (at 0800 hours). […]

[4] = tested on: cholesterol 7α-hydroxylase; assay: Cholesterol 7α-hydroxylase activity in isolated chicken hepatocytes; type: cell-based
Description: as §1, §2

[5] = tested on: hypercholesterolemic swine; assay: Body weight gain and feed conversion efficiency in hypercholesterolemic swine; type: in vivo; settings: control diet + 50 ppm
Description: as §4

[6] = tested on: human peripheral blood neutrophils; assay: Release of superoxide in human peripheral blood neutrophils; type: cell-based; settings: for 5×10^5 cells/hour, phorbol myrstate acetate
Excerpt: We determined the effect of a known tocotrienol, γ-T3, on the release of superoxide in human peripheral blood neutrophils. Neutrophils are an extracellular source of oxygen free radicals. Once activated, these neutrophils can attach to endothelial tissue where they release a potent toxin, superoxide. Superoxide amplifies the inflammatory response and impairs local circulation of the blood.
The neutrophils we tested were isolated by density centrifugation on Ficoll-Hypaque gradients using conventional methods (see E. Serbinova et al., "Free Radical Recycling and Intramembrane Mobility in the Antioxidant Properties of α-Tocopherol and α-Tocotrienol", Free Rad. Bio. and Med., 10, pp. 263-75 (1991)). The neutrophils were then placed in a 96-well plate. γ-T3 and phorbol myrstate acetate were added to the wells at the same time. The secretion of superoxide anion was measured as the superoxide dismutase-inhibitable reduction of ferricytochrome C.

T1 sequence (P12276 2-2512 limits assumed): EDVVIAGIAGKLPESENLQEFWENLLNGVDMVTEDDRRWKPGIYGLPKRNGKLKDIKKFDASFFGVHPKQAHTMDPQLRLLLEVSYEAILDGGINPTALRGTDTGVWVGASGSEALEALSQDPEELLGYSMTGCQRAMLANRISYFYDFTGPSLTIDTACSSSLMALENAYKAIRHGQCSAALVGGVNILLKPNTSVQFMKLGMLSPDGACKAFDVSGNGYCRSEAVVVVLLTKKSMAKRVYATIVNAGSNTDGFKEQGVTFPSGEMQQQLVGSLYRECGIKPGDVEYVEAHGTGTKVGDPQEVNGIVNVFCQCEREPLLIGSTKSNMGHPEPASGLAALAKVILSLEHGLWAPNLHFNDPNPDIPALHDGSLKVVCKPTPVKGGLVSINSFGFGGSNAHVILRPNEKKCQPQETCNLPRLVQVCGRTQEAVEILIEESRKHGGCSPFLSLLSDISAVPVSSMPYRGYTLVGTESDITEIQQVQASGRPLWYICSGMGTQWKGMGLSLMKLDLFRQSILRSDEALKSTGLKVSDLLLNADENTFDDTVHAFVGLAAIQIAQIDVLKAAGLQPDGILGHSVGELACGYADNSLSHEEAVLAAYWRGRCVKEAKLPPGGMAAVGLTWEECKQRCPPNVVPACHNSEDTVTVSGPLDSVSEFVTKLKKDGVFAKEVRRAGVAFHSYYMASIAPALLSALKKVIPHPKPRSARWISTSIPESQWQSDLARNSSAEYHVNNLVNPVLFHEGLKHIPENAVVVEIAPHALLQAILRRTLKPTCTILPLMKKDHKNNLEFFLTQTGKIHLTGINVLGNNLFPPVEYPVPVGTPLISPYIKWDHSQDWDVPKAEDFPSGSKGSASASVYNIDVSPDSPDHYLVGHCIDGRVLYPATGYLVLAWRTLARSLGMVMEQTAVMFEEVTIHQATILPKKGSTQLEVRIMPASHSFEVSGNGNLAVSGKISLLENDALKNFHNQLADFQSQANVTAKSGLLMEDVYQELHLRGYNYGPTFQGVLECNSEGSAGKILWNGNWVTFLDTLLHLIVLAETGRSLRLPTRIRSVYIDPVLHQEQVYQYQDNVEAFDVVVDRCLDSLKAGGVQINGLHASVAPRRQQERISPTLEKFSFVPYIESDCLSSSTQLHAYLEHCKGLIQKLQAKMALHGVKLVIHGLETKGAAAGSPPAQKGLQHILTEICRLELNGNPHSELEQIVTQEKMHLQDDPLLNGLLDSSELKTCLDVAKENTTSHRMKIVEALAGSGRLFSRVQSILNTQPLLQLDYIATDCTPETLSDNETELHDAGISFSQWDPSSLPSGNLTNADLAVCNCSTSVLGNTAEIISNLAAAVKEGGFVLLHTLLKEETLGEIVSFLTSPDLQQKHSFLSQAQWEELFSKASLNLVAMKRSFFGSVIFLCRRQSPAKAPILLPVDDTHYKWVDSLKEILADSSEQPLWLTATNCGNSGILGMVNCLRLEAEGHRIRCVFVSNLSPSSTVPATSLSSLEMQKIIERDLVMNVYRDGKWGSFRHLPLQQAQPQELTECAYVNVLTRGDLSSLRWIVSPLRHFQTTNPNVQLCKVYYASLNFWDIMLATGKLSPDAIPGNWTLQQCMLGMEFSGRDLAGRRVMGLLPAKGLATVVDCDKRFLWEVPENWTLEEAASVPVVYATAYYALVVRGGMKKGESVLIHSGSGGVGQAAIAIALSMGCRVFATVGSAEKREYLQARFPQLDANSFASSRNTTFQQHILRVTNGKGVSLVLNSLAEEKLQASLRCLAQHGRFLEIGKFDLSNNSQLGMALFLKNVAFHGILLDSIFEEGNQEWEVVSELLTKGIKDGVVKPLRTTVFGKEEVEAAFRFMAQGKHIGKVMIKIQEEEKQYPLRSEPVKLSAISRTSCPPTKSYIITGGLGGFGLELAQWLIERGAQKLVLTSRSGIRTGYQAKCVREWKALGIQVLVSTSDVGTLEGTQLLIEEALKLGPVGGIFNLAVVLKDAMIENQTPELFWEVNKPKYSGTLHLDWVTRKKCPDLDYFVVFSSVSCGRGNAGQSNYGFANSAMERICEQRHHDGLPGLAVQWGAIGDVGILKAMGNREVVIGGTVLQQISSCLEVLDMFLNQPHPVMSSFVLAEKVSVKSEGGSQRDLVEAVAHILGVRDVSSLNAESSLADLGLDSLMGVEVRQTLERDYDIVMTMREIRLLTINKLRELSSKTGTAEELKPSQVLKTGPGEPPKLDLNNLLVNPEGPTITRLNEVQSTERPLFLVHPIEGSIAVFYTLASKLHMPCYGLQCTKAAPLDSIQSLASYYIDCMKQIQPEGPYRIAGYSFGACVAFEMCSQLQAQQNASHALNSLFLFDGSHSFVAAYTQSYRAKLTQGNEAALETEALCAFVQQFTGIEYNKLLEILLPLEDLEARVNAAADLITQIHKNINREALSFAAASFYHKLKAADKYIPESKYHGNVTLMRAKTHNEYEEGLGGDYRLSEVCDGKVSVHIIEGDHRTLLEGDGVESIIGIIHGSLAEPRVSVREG

CC(C)=CCC/C(C)=C/CC/C(C)=C/CCC1CCc2cc(O)ccc2O1 (centres unmarked) [P25, 3,4-dihydro-2-(4,8,12-trimethyltrideca-3'(E),7'(E),11'-trienyl)-2H-1-benzopyran-6-ol]
Fatty Acid Synthase ([1]; 10.0 μg/mL): 16.2 nmol/min/mg | Fatty Acid Synthase, percentage of 0.0 μg/mL ([1]; 10.0 μg/mL): 94.2% | Fatty Acid Synthase ([1]; 20.0 μg/mL): 14.3 nmol/min/mg | Fatty Acid Synthase, percentage of 0.0 μg/mL ([1]; 20.0 μg/mL): 83.1% | Fatty Acid Synthase ([1]; 40.0 μg/mL): 12.7 nmol/min/mg | Fatty Acid Synthase, percentage of 0.0 μg/mL ([1]; 40.0 μg/mL): 73.8% | Fatty Acid Synthase ([1]; 80.0 μg/mL): 12.1 nmol/min/mg | Fatty Acid Synthase, percentage of 0.0 μg/mL ([1]; 80.0 μg/mL): 70.3% | CHOLESTEROL 7α-HYDROXYLASE, percentage of baseline value ([2]; 21 days): 101.09% | Cholesterol 7α-hydroxylase ([2]; 21 days): 4.62 pg/min/mg of microsomes | CHOLESTEROL 7α-HYDROXYLASE, Percentage of Control Activity ([2]; 42 days): 98.58% | CHOLESTEROL 7α-HYDROXYLASE, percentage of baseline value ([2]; 42 days): 102.41% | Cholesterol 7α-hydroxylase ([2]; 42 days): 4.68 pg/min/mg of microsomes | increase in the HDL-/LDL-cholesterol ratio ([3]; 50 ppm in diet): > 100% | rank as cholesterol inhibitor among compounds tested (in words) ([3]; 50 ppm in diet): most potent cholesterol inhibitors | reduction of serum cholesterol ([3]; 50 ppm in diet): ~33% | APO A1, percentage of control [3]: 98.78% | APO A1 in serum [3]: 138.70 mg/100 ml | APO B in serum [3]: 25.20 mg/100 ml | APO B, percentage of control [3]: 76.13% | DL-Cholesterol/Total Cholesterol [3]: 0.73 | DL-Cholesterol/Total Cholesterol, percentage of control [3]: 125.30% | Glucose in serum [3]: 196.10 mg/100 ml | Glucose, percentage of control [3]: 87.43% | HDL-Cholesterol in serum [3]: 70.12 ± 1.25 mg/dL | HDL-Cholesterol, percentage of control [3]: 53.82% | HDL-Cholesterol/LDL-Cholesterol [3]: 3.05 | HDL-Cholesterol/LDL-Cholesterol, percentage of control [3]: 200.60% | LDL-Cholesterol in serum [3]: 23.00 ± 1.27 mg/dL | LDL-Cholesterol, percentage of control [3]: 41.77% | Total Cholesterol in serum [3]: 95.51 ± 1.11 mg/dL | Total Cholesterol, percentage of control [3]: 66.90% | Triglycerides in serum [3]: 54.65 mg/100 ml | Triglycerides, percentage of control [3]: 73.82% | Cholesterol 7α-hydroxylase ([4]; 10.0 μg/mL): 2.33 pmol/min/mg | Cholesterol 7α-hydroxylase, percentage of 0.0 μg/mL ([4]; 10.0 μg/mL): 100.9% | Cholesterol 7α-hydroxylase ([4]; 20.0 μg/mL): 2.37 pmol/min/mg | Cholesterol 7α-hydroxylase, percentage of 0.0 μg/mL ([4]; 20.0 μg/mL): 102.61% | Cholesterol 7α-hydroxylase ([4]; 40.0 μg/mL): 2.44 pmol/min/mg | Cholesterol 7α-hydroxylase, percentage of 0.0 μg/mL ([4]; 40.0 μg/mL): 105.6% | Cholesterol 7α-hydroxylase ([4]; 80.0 μg/mL): 2.37 pmol/min/mg | Cholesterol 7α-hydroxylase, percentage of 0.0 μg/mL ([4]; 80.0 μg/mL): 102.6% | increase of feed conversion efficiency [5]: 10%

CC(C)=CCC/C(C)=C/CC/C(C)=C/CCC1(C)CCc2cc(O)c(C)c(C)c2O1 (centres unmarked) [γ-T3, γ-tocotrienol, reference compound]
CHOLESTEROL 7α-HYDROXYLASE, percentage of baseline value ([2]; 21 days): 100.89% | Cholesterol 7α-hydroxylase ([2]; 21 days): 4.53 pg/min/mg of microsomes | CHOLESTEROL 7α-HYDROXYLASE, Percentage of Control Activity ([2]; 42 days): 98.18% | CHOLESTEROL 7α-HYDROXYLASE, percentage of baseline value ([2]; 42 days): 102.00% | Cholesterol 7α-hydroxylase ([2]; 42 days): 4.58 pg/min/mg of microsomes | amount of superoxide released (control 19.7 nmole) ([6]; concentration 10^-5): 0 nmol | amount of superoxide released (control 19.7 nmole) ([6]; concentration 10^-6): 8.0 nmol | APO A1, percentage of control [3]: 99.57% | APO A1 in serum [3]: 139.80 mg/100 ml | APO B in serum [3]: 29.53 mg/100 ml | APO B, percentage of control [3]: 89.21% | DL-Cholesterol/Total Cholesterol [3]: 0.67 | DL-Cholesterol/Total Cholesterol, percentage of control [3]: 114.50% | Glucose in serum [3]: 208.70 mg/100 ml | Glucose, percentage of control [3]: 93.05% | HDL-Cholesterol in serum [3]: 78.39 ± 0.96 mg/dL | HDL-Cholesterol, percentage of control [3]: 93.70% | HDL-Cholesterol/LDL-Cholesterol [3]: 2.09 | HDL-Cholesterol/LDL-Cholesterol, percentage of control [3]: 137.50% | LDL-Cholesterol in serum [3]: 37.52 ± 0.81 mg/dL | LDL-Cholesterol, percentage of control [3]: 68.14% | Total Cholesterol in serum [3]: 116.86 ± 1.47 mg/dL | Total Cholesterol, percentage of control [3]: 81.85% | Triglycerides in serum [3]: 61.07 mg/100 ml | Triglycerides, percentage of control [3]: 82.49%

CC(C)=CCC/C(C)=C/CC/C(C)=C/CCC1(C)CCc2cc(O)ccc2O1 (centres unmarked) [P21, 3,4-dihydro-2-methyl-2-(4,8,12-trimethyltrideca-3' (E),7'(E),11'-trienyl)-2H-1-benzopyran-6-ol]
Fatty Acid Synthase ([1]; 10.0 μg/mL): 14.3 nmol/min/mg | Fatty Acid Synthase, percentage of 0.0 μg/mL ([1]; 10.0 μg/mL): 83.1% | Fatty Acid Synthase ([1]; 20.0 μg/mL): 12.7 nmol/min/mg | Fatty Acid Synthase, percentage of 0.0 μg/mL ([1]; 20.0 μg/mL): 73.8% | Fatty Acid Synthase ([1]; 40.0 μg/mL): 11.8 nmol/min/mg | Fatty Acid Synthase, percentage of 0.0 μg/mL ([1]; 40.0 μg/mL): 68.6% | Fatty Acid Synthase ([1]; 80.0 μg/mL): 10.2 nmol/min/mg | Fatty Acid Synthase, percentage of 0.0 μg/mL ([1]; 80.0 μg/mL): 59.3% | CHOLESTEROL 7α-HYDROXYLASE, percentage of baseline value ([2]; 21 days): 99.34% | Cholesterol 7α-hydroxylase ([2]; 21 days): 4.50 pg/min/mg of microsomes | CHOLESTEROL 7α-HYDROXYLASE, Percentage of Control Activity ([2]; 42 days): 98.38% | CHOLESTEROL 7α-HYDROXYLASE, percentage of baseline value ([2]; 42 days): 102.21% | Cholesterol 7α-hydroxylase ([2]; 42 days): 4.63 pg/min/mg of microsomes | increase in the HDL-/LDL-cholesterol ratio ([3]; 50 ppm in diet): > 100% | rank as cholesterol inhibitor among compounds tested (in words) ([3]; 50 ppm in diet): most potent cholesterol inhibitors | APO A1, percentage of control [3]: 98.79% | APO A1 in serum [3]: 138.4 mg/100 ml | APO B in serum [3]: 25.40 mg/100 ml | APO B, percentage of control [3]: 76.74% | DL-Cholesterol/Total Cholesterol [3]: 0.74 | DL-Cholesterol/Total Cholesterol, percentage of control [3]: 126.50% | Glucose in serum [3]: 198.80 mg/100 ml | Glucose, percentage of control [3]: 88.63% | HDL-Cholesterol in serum [3]: 68.88 ± 1.52 mg/dL | HDL-Cholesterol, percentage of control [3]: 82.33% | HDL-Cholesterol/LDL-Cholesterol [3]: 3.11 | HDL-Cholesterol/LDL-Cholesterol, percentage of control [3]: 204.60% | LDL-Cholesterol in serum [3]: 22.16 ± 0.57 mg/dL | LDL-Cholesterol, percentage of control [3]: 40.25% | Total Cholesterol in serum [3]: 92.91 ± 1.27 mg/dL | Total Cholesterol, percentage of control [3]: 65.08% | Triglycerides in serum [3]: 56.22 mg/100 ml | Triglycerides, percentage of control [3]: 75.94% | Cholesterol 7α-hydroxylase ([4]; 10.0 μg/mL): 2.41 pmol/min/mg | Cholesterol 7α-hydroxylase, percentage of 0.0 μg/mL ([4]; 10.0 μg/mL): 104.3% | Cholesterol 7α-hydroxylase ([4]; 20.0 μg/mL): 3.40 pmol/min/mg | Cholesterol 7α-hydroxylase, percentage of 0.0 μg/mL ([4]; 20.0 μg/mL): 103.9% | Cholesterol 7α-hydroxylase ([4]; 40.0 μg/mL): 2.39 pmol/min/mg | Cholesterol 7α-hydroxylase, percentage of 0.0 μg/mL ([4]; 40.0 μg/mL): 103.5% | Cholesterol 7α-hydroxylase ([4]; 80.0 μg/mL): 1.37 pmol/min/mg | Cholesterol 7α-hydroxylase, percentage of 0.0 μg/mL ([4]; 80.0 μg/mL): 102.6% | increase of feed conversion efficiency [5]: 7%
